Structures can show the parent of a compound that is named as a salt.
Biological target: T1, KRAS G12C (Homo sapiens, UniProt P01116, G12C)
T1 construct: purchased Reactionbiology
Experiment: KRAS G12C NEA-HTRF experiment (SOS1-catalyzed displacement of GDP by GTP)
Format: biochemical
Procedure, shortened: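 His-tagged KRAS G12C preloaded with DY647-GDP was preincubated 15 min at 20 °C with compound, then exchanged with SOS1 (0.2 μM working solution) and GTP (200 μM working solution) for 2 h at 20 °C in the dark. HTRF 665/615 nm ratio with anti-His-Tb was normalised to T0 and no-compound controls; IC50 by four-parameter fit.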

T1 sequence (P01116 1-188 isoform P01116-2 G12C): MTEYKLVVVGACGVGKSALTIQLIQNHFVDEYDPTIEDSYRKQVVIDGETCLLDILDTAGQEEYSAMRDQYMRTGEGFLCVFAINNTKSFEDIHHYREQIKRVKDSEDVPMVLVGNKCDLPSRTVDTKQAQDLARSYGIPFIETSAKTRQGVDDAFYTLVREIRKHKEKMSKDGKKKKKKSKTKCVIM

C=CC(=O)N1CCN2C(=O)c3c(N4CCN(C)C5(CC5)C4)nc(-c4c(O)cccc4F)c(Cl)c3OC[C@H]2C1 [Z83, (6aR)-8-acryloyl-4-chloro-3-(2-fluoro-6-hydroxyphenyl)-1-(4-methyl-4,7-diazaspiro[2 .5]octan-7-yl)-6,6a,7,8,9,10-hexahydro-12H-pyrazino[2,1-c]pyrido[3,4-f][1,4]oxazepin-12 (6aH)-one]
IC50: 111 nM

C=CC(=O)N1CCN2C(=O)c3c(N4CC[C@@H](OC)C4(C)C)nc(-c4c(O)cccc4F)c(Cl)c3OC[C@H]2C1 (single isomer, unassigned) [Z241a-2]
IC50: 5 nM

C=CC(=O)N1CCN2C(=O)c3c(N4C[C@@H](O)CC4(C)C)nc(-c4c(F)ccc(F)c4O)c(F)c3OC[C@H]2C1 (single isomer, unassigned) [Z449-1]
IC50: 31 nM

C=CC(=O)N1CCN2C(=O)c3c(N4CC[C@@H](OC)[C@@H]4C)nc(-c4c(O)cccc4F)c(Cl)c3OC[C@H]2C1 [Z338-1, (6aR)-8-acryloyl-4-chloro-3-(2-fluoro-6-hydroxyphenyl)-1-((2S,3R)-3-methoxy-2-methylpyrrolidin-1-yl)-6,6a,7,8,9,10-hexahydro-12H-pyrazino[2,1-c]pyrido[3,4-f][1,4]oxazepin-12-one]
IC50: 39 nM

C=CC(=O)N1CCN2C(=O)c3c(N4CC(CO)CC4(C)C)nc(-c4c(O)cccc4F)c(Cl)c3OC[C@H]2C1 (stereo partly drawn) [Z240, (6aR)-8-acryloyl-4-chloro-3-(2-fluoro-6-hydroxyphenyl)-1-(4-(hydroxymethyl)-2,2-dimethylpyrrolidin-1-yl)-6,6a,7,8,9,10-hexahydro-12H-pyrazino[2,1-c]pyrido[3,4-f][1,4]oxazepin-12-one]
IC50: 10 nM

C=CC(=O)N1CCN2C(=O)c3c(N4CCOCC4)nc(-c4nc(N)cc(C)c4C(F)(F)F)c(Cl)c3OC[C@H]2C1 [Z314]
IC50: 43 nM

C=CC(=O)N1CCN2C(=O)c3c(N4CC(N5CCOCC5)CC4(C)C)nc(-c4c(O)cccc4F)c(Cl)c3OC[C@H]2C1 (stereo partly drawn) [Z344, (6aR)-8-acryloyl-4-chloro-1-((2,2-dimethyl-4-morpholinopyrrolidin-1-yl))-3-(2-fluoro-6-hydroxyphenyl)-6,6a,7,8,9,10-hexahydro-12H-pyrazino[2,1-c]pyrido[3,4-f][1,4]oxazepin-12-one]
IC50: 10 nM

C=CC(=O)N1CCN2C(=O)c3c(N4Cc5cn(C)nc5[C@H]4C)nc(-c4c(O)cccc4F)c(Cl)c3OC[C@H]2C1 (single isomer, unassigned) [Z291-1S, trifluoroacetate]
IC50: 76 nM

C=CC(=O)N1CCN2C(=O)c3c(N4CC(C#N)CC4(C)C)nc(-c4c(O)cccc4F)c(F)c3OC[C@H]2C1 (stereo partly shown) [Z335]
IC50: 78 nM

C=CC(=O)N1CCN2C(=O)c3c(N4Cc5cn(C)nc5C4(C)C)nc(-c4c(O)cccc4F)c(Cl)c3OC[C@H]2C1 [Z310, (6aR)-8-acryloyl-1-(2,6,6-trimethylpyrrolo[3,4-c]pyrazol-5(2H,4H,6H)-yl)-4-chloro-3-(2-fluoro-6-hydroxyphenyl)-6,6a,7,8,9,10-hexahydro-12H-pyrazino[2,1-c]pyrido[3,4-f][1,4]oxazepin-12-one]
IC50: 36 nM

C=CC(=O)N1CCN2C(=O)c3c(N4C[C@H](N(C)C)CC4(C)C)nc(-c4c(O)cccc4F)c(Cl)c3OC[C@H]2C1 (single isomer, unassigned) [Z324-2]
IC50: 61 nM

C=CC(=O)N1CCN2C(=O)c3c(N4CC[C@H](OC)C4(C)C)nc(-c4c(O)cccc4F)c(Cl)c3OC[C@H]2C1 (single isomer, unassigned) [Z241a-1]
IC50: 13 nM

C=CC(=O)N1CCN2C(=O)c3c(N4CCN(C)C[C@@H]4C)nc(-c4c(F)ccc(F)c4O)c(Cl)c3OC[C@H]2C1 [Z356, (6aR)-8-acryloyl-4-chloro-3-(3,6-difluoro-2-hydroxyphenyl)-1-((S)-2,4-dimethylpiperazin-1-yl)-6,6a,7,8,9,10-hexahydro-12H-pyrazino[2,1-c]pyrido[3,4-f][1,4]oxazepin-12-one]
IC50: 161 nM

— patent publication US20230203060A1 (GENFLEET THERAPEUTICS (SHANGHAI) INC., priority 2020, published 2023)
